Experimental data taken from the NIST ThermoML archive (doi:10.1021/je1012789).

Test: mn = molality of the nth substance listed, in mol/kg
Conditions: 101 kPa, Liquid

O=[N+]([O-])[O-].[K+] [potassium nitrate] + O
Conditions	mass density [kg/m3]	speed of sound [m/s]	viscosity [mPa·s]
293.15 K, m1 = 0.2	1010.62	1490.7	0.98
293.15 K, m1 = 0.3	1016.69	1493.5	0.977
293.15 K, m1 = 0.4	1022.68	1497.4	0.973
293.15 K, m1 = 0.5	1028.6	1501	0.97
293.15 K, m1 = 0.6	1034.61	1504.4	0.967
293.15 K, m1 = 0.7	1040.37	1507.6	0.963
298.15 K, m1 = 0.2	1009.41	1504	0.871
298.15 K, m1 = 0.3	1015.47	1507	0.869
298.15 K, m1 = 0.4	1021.25	1510.1	0.867
298.15 K, m1 = 0.5	1027.13	1513.4	0.862
298.15 K, m1 = 0.6	1032.84	1517	0.862
298.15 K, m1 = 0.7	1038.56	1520	0.859
303.15 K, m1 = 0.2	1007.8	1515.6	0.778
303.15 K, m1 = 0.3	1013.82	1518.7	0.776
303.15 K, m1 = 0.4	1019.62	1522	0.775
303.15 K, m1 = 0.5	1025.4	1524.7	0.774
303.15 K, m1 = 0.6	1031.2	1528.4	0.773
303.15 K, m1 = 0.7	1036.79	1530.9	0.772
308.15 K, m1 = 0.2	1006.09	1526	0.672
308.15 K, m1 = 0.3	1011.97	1528.8	0.67
308.15 K, m1 = 0.4	1017.79	1531.4	0.669
308.15 K, m1 = 0.5	1023.58	1534.3	0.678
308.15 K, m1 = 0.6	1029.21	1536.8	0.666
308.15 K, m1 = 0.7	1034.87	1539.4	0.665
313.15 K, m1 = 0.2	1004.28	1534.6	0.595
313.15 K, m1 = 0.3	1009.98	1537.5	0.593
313.15 K, m1 = 0.4	1015.89	1539.7	0.585
313.15 K, m1 = 0.5	1021.56	1542.5	0.577
313.15 K, m1 = 0.6	1027.23	1544.8	0.569
313.15 K, m1 = 0.7	1032.76	1547.7	0.563

[Br-].[K+] [potassium bromide] + O
Conditions	mass density [kg/m3]	speed of sound [m/s]	viscosity [mPa·s]
293.15 K, m1 = 0.2	1015.19	1487	0.985
293.15 K, m1 = 0.3	1023.34	1488.9	0.975
293.15 K, m1 = 0.4	1031.61	1490.9	0.97
293.15 K, m1 = 0.5	1039.7	1492.8	0.97
293.15 K, m1 = 0.6	1047.69	1493.4	0.95
293.15 K, m1 = 0.7	1055.7	1497.1	0.936
298.15 K, m1 = 0.2	1013.8	1500.6	0.873
298.15 K, m1 = 0.3	1022.08	1503.2	0.863
298.15 K, m1 = 0.4	1030.17	1504	0.86
298.15 K, m1 = 0.5	1038.34	1506.5	0.857
298.15 K, m1 = 0.6	1046.11	1506	0.846
298.15 K, m1 = 0.7	1054.22	1509.1	0.832
303.15 K, m1 = 0.2	1012.3	1512.5	0.782
303.15 K, m1 = 0.3	1020.51	1514.2	0.772
303.15 K, m1 = 0.4	1028.56	1516	0.769
303.15 K, m1 = 0.5	1036.79	1517.2	0.765
303.15 K, m1 = 0.6	1044.6	1517.9	0.76
303.15 K, m1 = 0.7	1052.52	1520.4	0.74
308.15 K, m1 = 0.2	1010.63	1523.4	0.698
308.15 K, m1 = 0.3	1018.9	1524.6	0.688
308.15 K, m1 = 0.4	1026.73	1526.4	0.682
308.15 K, m1 = 0.5	1035	1527.7	0.678
308.15 K, m1 = 0.6	1042.99	1527.8	0.674
308.15 K, m1 = 0.7	1050.61	1529.6	0.664
313.15 K, m1 = 0.2	1008.74	1532.3	0.622
313.15 K, m1 = 0.3	1016.99	1532.8	0.612
313.15 K, m1 = 0.4	1024.78	1534.7	0.608
313.15 K, m1 = 0.5	1032.88	1535.5	0.605
313.15 K, m1 = 0.6	1041.01	1535.9	0.602
313.15 K, m1 = 0.7	1048.62	1538.1	0.595
